Measured values published in ChEMBL document CHEMBL1201862, “PubChem BioAssay data set” (2004).
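Where inhibition never reached the appropriate level, the endpoint shown equals the highest concentration tested. Otherwise, values were interpolated linearly from a five-concentration, 48-hour dose response in 96-well plates. Abbreviation: GI50, concentration required for 50% inhibition of growth.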 Calls of active or inactive are those of the source. Rule as the data show it: active = GI50 up to about 1.1 µM and inactive = higher.

Key:
Experiment in all cases: growth of human tumour cells (NCI), 48 h
A498 = tested on: A498
ACHN = tested on: ACHN
CAKI-1 = tested on: CAKI-1
DU-145 = tested on: DU-145
EKVX = tested on: EKVX
HCC 2998 = tested on: HCC 2998
HCT-15 = tested on: HCT-15
HOP-92 = tested on: HOP-92
Hs-578T = tested on: Hs-578T
K562 = tested on: K562
MCF7 = tested on: MCF7
NCI-H226 = tested on: NCI-H226
NCI-H460 = tested on: NCI-H460
NCI-H522 = tested on: NCI-H522
OVCAR-3 = tested on: OVCAR-3
OVCAR-4 = tested on: OVCAR-4
PC-3 = tested on: PC-3
SF-539 = tested on: SF-539
SK-MEL-2 = tested on: SK-MEL-2
SK-OV-3 = tested on: SK-OV-3

Row | SMILES | GI50 (A498) | GI50 (ACHN) | GI50 (CAKI-1) | GI50 (DU-145) | GI50 (EKVX) | GI50 (HCC 2998) | GI50 (HCT-15) | GI50 (HOP-92) | GI50 (Hs-578T) | GI50 (K562) | GI50 (MCF7) | GI50 (NCI-H226) | GI50 (NCI-H460) | GI50 (NCI-H522) | GI50 (OVCAR-3) | GI50 (OVCAR-4) | GI50 (PC-3) | GI50 (SF-539) | GI50 (SK-MEL-2) | GI50 (SK-OV-3)
1 | Cc1ccc(N2C(=O)CC(=O)N(NC(=O)C(C)Oc3ccccc3C)C2=S)cc1 (stereo not given) | > 100 µM (inactive) | > 100 µM (inactive) | > 100 µM (inactive) | > 100 µM (inactive) | > 100 µM (inactive) | > 100 µM (inactive) | > 100 µM | > 100 µM (inactive) | > 100 µM (inactive) | 65.9 µM (inactive) | > 100 µM (inactive) | > 100 µM (inactive) | > 100 µM (inactive) | > 100 µM (inactive) | > 100 µM (inactive) | > 100 µM (inactive) | > 100 µM (inactive) | > 100 µM (inactive) | > 100 µM (inactive) | > 100 µM (inactive)
2 | C(=C/c1nnnn1-c1ccccc1)/Nc1ccccc1 | > 100 µM (inactive) | 28.1 µM (inactive) | 43 µM (inactive) | 24.7 µM (inactive) | 40.6 µM (inactive) | 21.7 µM (inactive) | 21.5 µM | 24.4 µM (inactive) | 31.8 µM (inactive) | 20.7 µM (inactive) | 19.3 µM (inactive) | 19.1 µM (inactive) | 49.8 µM (inactive) | 20.8 µM (inactive) | 27.2 µM (inactive) | – | 27.2 µM (inactive) | 23.3 µM (inactive) | 2.64 µM (inactive) | 36.2 µM (inactive)
3 | C=CCCCC1(C)CCNC1=S (stereo not given) | > 100 µM (inactive) | > 100 µM (inactive) | > 100 µM (inactive) | > 100 µM (inactive) | > 100 µM (inactive) | > 100 µM (inactive) | > 100 µM | > 100 µM (inactive) | > 100 µM (inactive) | > 100 µM (inactive) | > 100 µM (inactive) | – | > 100 µM (inactive) | > 100 µM (inactive) | > 100 µM (inactive) | > 100 µM (inactive) | > 100 µM (inactive) | > 100 µM (inactive) | > 100 µM (inactive) | > 100 µM (inactive)
4 | CC(C)OC(=O)c1ccc(CCC2=CC(=O)C=CC2=O)cc1 | 23 µM (inactive) | 7.89 µM (inactive) | 1.98 µM (inactive) | 15.2 µM (inactive) | 11.5 µM (inactive) | 16.8 µM (inactive) | 8.81 µM | 5.05 µM (inactive) | 13 µM (inactive) | 3.04 µM (inactive) | 15.5 µM (inactive) | 15.9 µM (inactive) | 21.8 µM (inactive) | 1.9 µM (inactive) | 5.18 µM (inactive) | 14.8 µM (inactive) | 12 µM (inactive) | 5.45 µM (inactive) | 19.1 µM (inactive) | 34.8 µM (inactive)
5 | COc1ccc(/C=C2\N=C3N(Cc4ccccc4)C=C(N)N3C2=O)cc1 | 88.1 µM (inactive) | > 100 µM (inactive) | > 100 µM (inactive) | > 100 µM (inactive) | 59.4 µM (inactive) | > 100 µM (inactive) | > 100 µM | 58.7 µM (inactive) | 28.8 µM (inactive) | > 100 µM (inactive) | > 100 µM (inactive) | 55 µM (inactive) | > 100 µM (inactive) | 49.1 µM (inactive) | > 100 µM (inactive) | > 100 µM (inactive) | > 100 µM (inactive) | > 100 µM (inactive) | > 100 µM (inactive) | 37.2 µM (inactive)
6 | c1cnc(N2CCN(Cc3c[nH]c4ccccc34)CC2)nc1 | 28.7 µM (inactive) | 27.8 µM (inactive) | 28.2 µM (inactive) | 23.9 µM (inactive) | 85.3 µM (inactive) | 18.6 µM (inactive) | 72.9 µM | > 100 µM (inactive) | > 100 µM (inactive) | 40 µM (inactive) | 16.9 µM (inactive) | 58.7 µM (inactive) | 31.3 µM (inactive) | > 100 µM (inactive) | 52.2 µM (inactive) | 52 µM (inactive) | 23.5 µM (inactive) | 25.6 µM (inactive) | 13.3 µM (inactive) | > 100 µM (inactive)
7 | CC1(C)CNC(=O)C2(/C=N/C(C)(C)CNC(=O)C3(/C=N/1)CCCO3)CCCO2 (stereo not given) | > 10 µM (inactive) | > 10 µM (inactive) | > 10 µM (inactive) | > 10 µM (inactive) | > 10 µM (inactive) | > 10 µM (inactive) | > 10 µM | > 10 µM (inactive) | > 10 µM (inactive) | > 10 µM (inactive) | > 10 µM (inactive) | – | – | > 10 µM (inactive) | > 10 µM (inactive) | > 10 µM (inactive) | > 10 µM (inactive) | > 10 µM (inactive) | – | > 10 µM (inactive)
8 | COc1ccc(-c2cc(C(O)C3CCCCN3)c3ccccc3n2)cc1 (stereo not given) | 12.3 µM (inactive) | 11.9 µM (inactive) | 5.86 µM (inactive) | 8.39 µM (inactive) | 6.92 µM (inactive) | 2.19 µM (inactive) | 14.2 µM | 2.86 µM (inactive) | 14.3 µM (inactive) | 2.54 µM (inactive) | 3.87 µM (inactive) | 7.06 µM (inactive) | 3.05 µM (inactive) | 7.05 µM (inactive) | 14.4 µM (inactive) | 13.7 µM (inactive) | 5.08 µM (inactive) | 10.1 µM (inactive) | 6.12 µM (inactive) | 14.2 µM (inactive)
9 | CCOC(=O)CCC(C(=O)OCC)n1nc2ccc(Nc3c(C)[n+]([O-])c4ccc(Cl)cc4[n+]3[O-])cc2n1 (stereo not given) | 23.6 µM (inactive) | 15.8 µM (inactive) | 33.1 µM (inactive) | 20.1 µM (inactive) | 17.5 µM (inactive) | 2.93 µM (inactive) | 17.6 µM | 20.9 µM (inactive) | 21.4 µM (inactive) | 41.4 µM (inactive) | 24.1 µM (inactive) | 20.3 µM (inactive) | 17 µM (inactive) | 30.1 µM (inactive) | 24.9 µM (inactive) | 28.8 µM (inactive) | 26.5 µM (inactive) | 20.7 µM (inactive) | 20 µM (inactive) | 21.2 µM (inactive)
10 | N#Cc1cc2c(n(C3OC(CO)C(O)C(O)C3O)c1=S)CCCCCC2 (stereo not given) | > 100 µM (inactive) | > 100 µM (inactive) | > 100 µM (inactive) | > 100 µM (inactive) | – | > 100 µM (inactive) | > 100 µM | > 100 µM (inactive) | > 100 µM (inactive) | > 100 µM (inactive) | > 100 µM (inactive) | > 100 µM (inactive) | > 100 µM (inactive) | > 100 µM (inactive) | > 100 µM (inactive) | > 100 µM (inactive) | > 100 µM (inactive) | > 100 µM (inactive) | > 100 µM (inactive) | –
11 | Fc1ccc(C(OCCN2CCC3CCC(C2)N3C/C=C/c2cccnc2)c2ccc(F)cc2)cc1 (stereo not given) | 14.3 µM (inactive) | 14.2 µM (inactive) | 12 µM (inactive) | 15.8 µM (inactive) | 12.2 µM (inactive) | 4.79 µM (inactive) | 10 µM | 13.4 µM (inactive) | 12 µM (inactive) | – | 11 µM (inactive) | 12.1 µM (inactive) | 12.7 µM (inactive) | 13.6 µM (inactive) | 12.8 µM (inactive) | 12.6 µM (inactive) | 9.93 µM (inactive) | 11.5 µM (inactive) | 13.3 µM (inactive) | 14.7 µM (inactive)
12 | CC(C)[Si](OC1=C(c2ccccc2)C(NC(=O)/C=C/c2ccc([N+](=O)[O-])cc2)CCC1)(C(C)C)C(C)C (stereo not given) | > 100 µM (inactive) | – | – | > 100 µM (inactive) | > 100 µM (inactive) | > 100 µM (inactive) | > 100 µM | > 100 µM (inactive) | > 100 µM (inactive) | > 100 µM (inactive) | > 100 µM (inactive) | > 100 µM (inactive) | > 100 µM (inactive) | > 100 µM (inactive) | > 100 µM (inactive) | – | > 100 µM (inactive) | > 100 µM (inactive) | > 100 µM (inactive) | > 100 µM (inactive)
13 | N=C(N)N/N=C\c1c(-c2cccc([N+](=O)[O-])c2)nc2sccn12 | 25 µM (inactive) | 2.86 µM (inactive) | 17.4 µM (inactive) | 5.16 µM (inactive) | 15.9 µM (inactive) | 2.39 µM (inactive) | 9.68 µM | 5.93 µM (inactive) | 3.62 µM (inactive) | 2.8 µM (inactive) | 2.03 µM (inactive) | 2.68 µM (inactive) | 24.4 µM (inactive) | 3.45 µM (inactive) | 2.79 µM (inactive) | 1.76 µM (inactive) | 6.7 µM (inactive) | 17.9 µM (inactive) | 2.37 µM (inactive) | –
14 | Cc1nnc2cc(C(=O)O)c3ccccc3n2c1=O | > 10 µM (inactive) | – | > 10 µM (inactive) | > 10 µM (inactive) | > 10 µM (inactive) | > 10 µM (inactive) | > 10 µM | > 10 µM (inactive) | > 10 µM (inactive) | > 10 µM (inactive) | > 10 µM (inactive) | > 10 µM (inactive) | > 10 µM (inactive) | > 10 µM (inactive) | > 10 µM (inactive) | > 10 µM (inactive) | > 10 µM (inactive) | > 10 µM (inactive) | > 10 µM (inactive) | > 10 µM (inactive)
15 | CC(=O)Oc1ccn2nc(C)c(Br)c2c1 | > 100 µM (inactive) | > 100 µM (inactive) | – | > 100 µM (inactive) | > 83.2 µM (inactive) | > 100 µM (inactive) | 65.2 µM | > 87.1 µM (inactive) | > 100 µM (inactive) | 39.2 µM (inactive) | 47.8 µM (inactive) | > 100 µM (inactive) | 98.2 µM (inactive) | 28.8 µM (inactive) | 39.3 µM (inactive) | > 100 µM (inactive) | > 53.6 µM (inactive) | > 100 µM (inactive) | > 54 µM (inactive) | –
